Data on 5 compounds can be found in article PMC5397059, “Design, synthesis and structure-activity relationship study of wollamide B; a new potential anti TB agent” (PLoS ONE, 2017).

A word on the IC50: it is the concentration at which inhibition is half-maximal.

≈ marks a conversion by molar mass, not a printed value. Where “and” joins values, the source holds several entries; their conditions need not be identical. Equal values may be shown once. Read-outs that look alike come from different tables or passages of the source. Non-standard residues stand in square brackets, D forms with d. Residues, ends and D or L forms follow the SMILES beside them. dPhe(4-Cl) = N[C@H](Cc1ccc(Cl)cc1)C(=O)O; dOrn = NCCC[C@@H](N)C(=O)O

Series [1] in a line: Chemi-Luminescent Nitrogen Detection (CLND) kinetic solubility assay. Format: physicochemical. To be noted: phosphate buffered saline, pH 7.4. The procedure, abridged: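 10 mM DMSO stock diluted 5 μL into 100 uL pH 7.4 phosphate buffered saline, equilibrated 1 h at room temperature, then filtered. Filtrate quantified by calibrated flow-injection CLND; standard error ±30 μM, upper limit 500 μM.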

A further series in a line: Chrom logD assay. Format: physicochemical. The procedure, abridged:
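Reversed-phase C18 HPLC with fast acetonitrile gradient starting from 100% pH 7.4 buffer; CHI from retention times via calibration standards. ChromlogD = 0.0857CHI − 2.00; assay error ±3 CHI or ±0.25 ChromlogD.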

Series [2] is described as follows: Artificial membrane permeability assay. Format: in vitro ADME. To be noted: PAMPA, pH 7.4. The method, boiled down:
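PAMPA using L-α-phosphatidylcholine in cholesterol decane as the membrane, with 50 mM phosphate buffer containing 0.5% encapsin at pH 7.4 on both sides. Compound added to donor; plates shaken 3 h at room temperature in duplicate. Donor and receiver concentrations measured by HPLC; permeability reported in nm/sec.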
On the technique in general: PAMPA measures passive passage across an artificial lipid membrane.

Series [3] addresses T1, human serum albumin (Homo sapiens, UniProt P02768). Kind of series: Human serum albumin (HSA) binding assay. Type of series: in vitro ADME. To be noted: for % HSA: human serum albumin binding. The procedure, abridged:
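Gradient retention times measured on an immobilized HSA HPLC column with UV detection. Retention times converted to HSA binding values by a linear calibration against reference compounds of known binding, run before each batch.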

Series [4] is described as follows: Plasma stability assay, mouse plasma. Format: in vitro ADME. As to conditions: for remaining at 2 h, 1 uM: CD1, mouse, plasma. Here is the method: (§1) Plasma stability of the compounds was assessed in CD1 mouse and human plasma. Plasma was spiked with 1 μL of a 10 mM of each test compound solution to produce a 1 uM incubation. Three separate 300 μl aliquots were then taken from each tube and incubated at 37°C for 2 h. At each time point (0, 15, 30, 60 and 120 min), 50 μL of plasma were collected from each sample. Samples were extracted by protein precipitation with 250 μL of 0.1% AcOH acetonitrile methanol 3–1 (v/v) containing 1uM internal standard and centrifuged for 10min at 2800rpm. Supernatants were collected prior the injection onto an LC-MS/MS system. Analyte/Internal standard peak area ratios were referenced to the zero time-point samples as 100% in order to determine the percentage of compound remaining for each time-point. Ln plots of the % remaining for each compound were used to determine the half-life for the plasma incubations.

Series [5] can be described thus: Plasma stability assay, human plasma. Format: in vitro ADME. To be noted: for remaining at 2 h, 1 uM: human, plasma. Here is the method:
as §1

A short description of series [6]: Intrinsic clearance (CLint) assay, mouse liver microsomes. Format: in vitro ADME. As to conditions: for half-life at 0.5 µM: mouse, pooled mouse liver microsomes, pH 7.4; for CLint Mouse: mouse liver microsomes; for CLpred Mouse: predicted metabolic clearance. The method, boiled down: (§2)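 Pooled liver microsomes (0.5 mg/mL protein) with test compound at 0.5 μM (0.5% DMSO), 5 mM MgCl2 and pH 7.4 phosphate buffer were run at 37°C; 1 mM NADPH started the reaction. Samples at 0-45 min were analysed by LC-MS/MS; t1/2 and CLint were derived from the ln peak-area-ratio slope.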

Series [7] is described as follows: Intrinsic clearance (CLint) assay, human liver microsomes. Format: in vitro ADME. To be noted: for half-life at 0.5 µM: human, pooled human liver microsomes; for CLint Human: human liver microsomes; for CLpred Human: predicted metabolic clearance. The method, boiled down:
as §2

In another series the test system is Mtb H37Rv. As to conditions: for MIC against Mtb H37Rv: duplicate, analogues.
A further series relates to M. bovis. As to conditions: cited from earlier work.
In series [8] the test system is intracellular mycobacterial survival in murine bone marrow-derived macrophages. Set-up: method as in PMID 25229313. To be noted: cited from earlier work.
Another series deals with mycobacteria. Also on record: method as in PMID 25229313. To be noted: cited from earlier work.
Series [9] deals with T1, human serum albumin. Kind of series: HPLC retention on an immobilised HSA column; HSA immobilised on the column; gradient retention times of the compounds converted to % HSA binding by a calibration set of compounds of known HSA binding; UV detection.
[10] abbreviates: kinetic aqueous solubility by CLND, read-out: Solubility.
Where [11] appears, read: passive artificial membrane permeability, read-out: Permeability.
Setting [12] is: 2 hours at 37°C, triplicates, read-out: Plasma stability (% remaining) Mouse.
Where [13] appears, read: 2 hours at 37°C, triplicates, read-out: Plasma stability (% remaining) Human.
[14] abbreviates: read-out: Microsomal t1/2 Mouse.
Setting [15] is: pH 7.4, human liver microsomes, read-out: Microsomal t1/2 Human.

T1 sequence (P02768 25-609): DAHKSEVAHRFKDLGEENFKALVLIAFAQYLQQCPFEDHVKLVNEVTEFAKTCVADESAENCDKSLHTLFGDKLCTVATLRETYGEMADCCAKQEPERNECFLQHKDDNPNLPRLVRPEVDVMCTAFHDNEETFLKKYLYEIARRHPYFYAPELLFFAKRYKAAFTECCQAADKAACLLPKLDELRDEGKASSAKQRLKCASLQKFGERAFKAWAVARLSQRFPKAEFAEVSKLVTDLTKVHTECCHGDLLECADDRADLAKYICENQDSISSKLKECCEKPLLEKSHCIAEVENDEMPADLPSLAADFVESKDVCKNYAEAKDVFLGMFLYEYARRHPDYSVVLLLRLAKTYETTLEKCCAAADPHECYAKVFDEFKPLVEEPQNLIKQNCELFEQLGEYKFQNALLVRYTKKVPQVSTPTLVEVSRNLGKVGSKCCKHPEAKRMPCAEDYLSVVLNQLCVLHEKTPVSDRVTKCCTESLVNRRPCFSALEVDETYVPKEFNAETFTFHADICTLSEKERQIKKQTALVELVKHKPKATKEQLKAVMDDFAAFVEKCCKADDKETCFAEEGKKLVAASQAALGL

The compound `CC(C)C[C@@H]1NC(=O)[C@H](Cc2c[nH]c3ccccc23)NC(=O)[C@@H](CCCN)NC(=O)[C@H](CC(N)=O)NC(=O)[C@H](C(C)C)NC(=O)[C@@H](CC(C)C)NC1=O` [Compound 1c, wollamide B] (cyclo([dOrn]WL[dL]VN)) came in with an IC50 of 56 µM. For the same compound, the solubility kinetic at 1 h in series [1] (kinetic aqueous solubility, Table 1, read-out: Solubility CLND) is 151 µg/mL (≈ 204 µM). In addition, the chromatographic logD in the series “Chrom logD assay” (pH 7.4, Table 1, read-out: Log D pH = 7.4) turned out to be 1.8. The Papp at 3 h in series [2] (Table 1, read-out: Artificial membrane permeability) was less than 0.3 ×10⁻⁶ cm/s. Besides, the “% Human serum albumin binding” value at human serum albumin [3] (Table 1) was 73% and 72.66%. The “Plasma stability (% remaining), Mouse plasma” value in [4] (2 h at 37°C, Table 1) is given as “More than 90 % remaining”. Moreover, the amount remaining at 2 h, 1 uM in series [4] (2 h at 37°C, Table 1, read-out: Plasma stability (% remaining), Mouse plasma) was 90%. For the same compound, in series [5] (2 h at 37°C, Table 1), the “Plasma stability (% remaining), Human Plasma” value was “More than 90 % remaining”. Further, in series [5] (2 h at 37°C, Table 1, read-out: Plasma stability (% remaining), Human Plasma), the fraction remaining at 2 h, 1 uM was determined as 100%. Moreover, in [6] (Table 1), the “Mouse CLint” value is given as less than 0.50 mL/min/g. The “Mouse predicted % LBF” value in series [6] (liver blood flow, Table 1) is listed as less than 16.83%. Moreover, the half-life at 0.5 µM in [6] (Table 1, read-out: Mouse microsomal half-life) was greater than 2.31 h. The “Human CLint” value in series [7] (Table 1) is given as 0.97 mL/min/g. The half-life at 0.5 µM in series [7] (pH 7.4, Table 1, read-out: Human microsomal half-life) was 0.947 h. Moreover, the “Human predicted % LBF” value in [7] (liver blood flow, Table 1) is given as 56.88%. In addition, the “% LBF given as a fraction (metabolic stability class)” value in series [7] (predicted hepatic clearance, microsomal stability) is recorded as 1/2. For the same compound, the “Mtb H37Rv MIC” value with Mtb H37Rv (Table 1) worked out at 0.6 µM. Moreover, the IC50 in the series on M. bovis was 3.1 µM. The intracellular mycobacterial survival entry in series [8] is listed as “reduce the intracellular mycobacterial survival”.

As to `CC(C)C[C@@H]1NC(=O)[C@@H](Cc2ccc(Cl)cc2)NC(=O)[C@@H](CCCN)NC(=O)[C@H](CC(N)=O)NC(=O)[C@H](C(C)C)NC(=O)[C@@H](CC(C)C)NC1=O` [Compound 14c] (cyclo(L[dL]VN[dOrn][dPhe(4-Cl)])), the solubility kinetic at 1 h in series [1] (setting [10]) was no less than 218 µg/mL. Also, in the series “Chrom logD assay” (pH 7.4, read-out: Log D), the chromatographic logD turned out to be 1.9. Also, the Papp at 3 h in [2] (setting [11]) is less than 1 ×10⁻⁶ cm/s. Further, on human serum albumin [3], the “% HSA” value is given as 70.25%. Also, the fraction remaining at 2 h, 1 uM in [4] (setting [12]) amounted to 70%; in [5] (setting [13]) it was 104%. Moreover, in [6] (liver blood flow), the “% LBF Mouse” value is less than 16.27%. In series [6], the “CLint Mouse” value was less than 0.48 mL/min/g tissue. The half-life at 0.5 µM in series [6] (setting [14]) and in series [7] (setting [15]) was greater than 2.31 h in each case. For the same compound, the “CLpred Mouse” value in series [6] was less than 20.50 mL/min/kg. Also, the “CLint Human” value in series [7] is reported as less than 0.40 mL/min/g tissue. Also, in series [7] (liver blood flow), the “% LBF Human” value is given as less than 35.08%. In [7], the “CLpred Human” value was 6.31 mL/min/kg. Besides, the “MIC against Mtb H37Rv” value in the series on Mtb H37Rv was 40 µM (≈ 29.4 µg/mL).

As to `CC(C)C[C@@H]1NC(=O)[C@@H](CC(C)C)NC(=O)[C@@H](CCCN)NC(=O)[C@H](CC(N)=O)NC(=O)[C@H](C(C)C)NC(=O)[C@H](Cc2c[nH]c3ccccc23)NC1=O` [Compound 21c] (cyclo(LWVN[dOrn][dL])), the solubility kinetic at 1 h in series [1] (setting [10]) is no less than 210 µg/mL. In addition, the chromatographic logD in the series “Chrom logD assay” (pH 7.4, read-out: Log D) was found to be 1.89. Moreover, the Papp at 3 h in series [2] (setting [11]) was less than 0.3 ×10⁻⁶ cm/s. For the same compound, the “% HSA” value at human serum albumin [3] was 79.64%. The share remaining at 2 h, 1 uM in series [4] (setting [12]) came to 98%; in series [5] (setting [13]), 97%. In addition, in series [6] (liver blood flow), the “% LBF Mouse” value is reported as less than 16.83%. In addition, in series [6], the “CLint Mouse” value is given as less than 0.50 mL/min/g tissue. Also, the half-life at 0.5 µM in [6] (setting [14]) and in series [7] (setting [15]) was greater than 2.31 h throughout. Besides, the “CLpred Mouse” value in [6] was less than 21.21 mL/min/kg. Further, in [7], the “CLint Human” value is given as less than 0.40 mL/min/g tissue. Further, in series [7] (liver blood flow), the “% LBF Human” value is recorded as less than 35.25%. Moreover, the “CLpred Human” value in [7] was less than 6.35 mL/min/kg. Also, the “MIC against Mtb H37Rv” value in the series on Mtb H37Rv turned out to be 20 µM (≈ 14.8 µg/mL).

For desotamide B, the “antimycobacterial activity” value in the series on mycobacteria was “no antimycobacterial activity”.

Consider wollamide B (peptide), for which the % Human serum albumin binding in the series with human serum albumin [9] turned out to be 72.7%.
